Results taken from US20040248766A1, “Selective inhibition of intracellular amyloid-beta neurotoxicity in human neurons” (priority 2001, published 2004).
“Also recorded” adds a separate entry of the source. Numbered stars: 1 amine (or outer) side, 2 acyl side, 3 side chain; on linkers, the order of the positions; unused ones are H or OH. Bridge positions count the residues as written; N and C are the ends. Square brackets hold non-standard residues; d marks the D form. Peptide text beside a SMILES is read from it. I, II: the chains in the order shown. * marks the point of attachment. Actinocin(9to1) = Cc1c2oc3c(C)ccc(C(=O)[*:1])c3nc-2c(C(=O)[*:2])c(N)c1=O; NMeV = CN[C@H](C(=O)O)C(C)C; Cbz = O=C(OCc1ccccc1)*; Sar = CNCC(=O)O; CH2F = FC*

Experiments:
primary human neurons = assay: Microinjection of Aβ peptides into the cytosol of primary human neurons, cell death by TUNEL; assay type: cell-based; details: for intracellular toxicity to human neurons (in words): peptide microinjected into cytosol; for neuronal cell death (in words): fibrillized or non-fibrillized preparation, 10 nM, 24, 48 and 96 hours
Method: Cell cultures. Primary cultures of human neurons and astrocytes were prepared as described in LeBlanc, A., J. Neurosci. 15:7837-46 (1995), incorporated herein by reference. Fresh brain tissues were dissociated with 0.25% trypsin (Gibco-BRL) in phosphate buffered saline (PBS) at 37° C. for 15 minutes. The trypsin was inactivated. by adding 10% decomplemented fetal bovine serum (FBS, HyClone, Logan, Utah.) to the mixture. The dissociated tissues were triturated in 0.1 mg/ml DNaseI (Gibco-BRL) to obtain a homogeneous mixture. The mixture was filtered successively through 130 and 70 gm filters and centrifuged at 15,000 g for 10 minutes at 10° C. to pellet the cells. The cell pellet was washed once with PBS and once with minimal essential media (MEM, Gibco-BRL) in Earle's balanced salt solution containing 0.225% sodium bicarbonate, 1 mM sodium pyruvate, 2 mM L-glutamine, 0.1% dextrose, 1×antibiotic Pen-Strep (all from Gibco-BRL) and 5% decomplemented FBS.
The cells were plated on poly-L-lysine-coated ACLARTM (Cat. No.: 33C; thickness: 0.5 mm; Allied Chemical, Minneapolis, Minn.) coverslips at a density of 3×10^6 cells/ml. Neurons and astrocytes were incubated at 37° C. in the MEM media with 5% CO2, and the media were changed every 48 hours. For neuron culture, 1 mM fluorodeoxyuridine (FDU, Gibco-BRL) was applied for the first 3 feedings and after that, used weekly to prevent proliferation of dividing cells. […] Microinjection or treatment was performed 10 days after plating for neurons and astrocytes.
Aβ peptides. Aβ peptides (Bachem, King of Prussia, Pa.) were dissolved in sterile distilled water at 25 μM and incubated at 37° C. for 5 days. The peptides stock solutions were frozen and diluted in 1×PBS immediately before microinjection. […] A 250 μl aliquot was diluted to 0.25 μM and immediately frozen at −20° C. in aliquots of 50 μl. The remaining solution was incubated at 37° C. in Eppendorf tubes with continuous mixing by inversion. After incubation, the samples were removed, vortexed, sonicated twice for 1 minute in a bath type sonicator (ELMA GmbH & Co. KG, Germany) and frozen at −20° C. in […]. Each aliquot was used once to avoid possible effects of freeze and thaw cycles.
(§1) Microinjection. Thin-walled Borosilicate glass capillaries (OD 1.0 mm, ID 0.5 mm) with microfilament (MTW1OOF-4, World Precision Instrument, Sarasota, Fla.) were pulled with a Flaming/Brown Micropipefte Puller (β-87, Sutter, Novato, Calif.) to obtain injection needles with a tip diameter of ˜0.5 μm. Microinjection was performed in the cytosol of each cell using the Eppendorf Microinjector 5246 (Hamburg, Germany) and Burleigh Micromanipulator MIS-5000 (Victor, N.Y.). Human neurons were injected with 25 pl/shot at an injection pressure of 100 hPa, a compensation pressure of 50 hPa, and an injection time of 0.1 s. Human astrocytes, M17, NT2 and La—N-1 cells were injected with 8 pl/shot at an injection pressure of 50 hPa, a compensation pressure of 30 hPa and an injection time of 0.1 s.
The diluted peptides were injected at the indicated concentrations with 100 μg/ml dextran Texas Red (DTR) (MW: 3000, Molecular Probes, Eugene, Oreg.) as a fluorescent marker to recognize the injected cells.
Measurement of neuronal apoptosis. Cells were fixed in freshly prepared 4% paraformaldehyde/4% sucrose for 20 minutes at room temperature and permeabilized in 0.1% Triton X-100, 0.1% sodium citrate on ice for 2 minutes. Terminal deoxynucleotidyl transferase-mediated dUTP nick end labeling (TUNEL) was performed using the In Situ Cell Death Detection Kit I as described by the manufacturer (Roche Molecular Biochemicals).

human neurons = assay: Exposure of human neurons to extracellular Aβ peptides, TUNEL and propidium iodide; assay type: cell-based; details: 10 μM extracellular, 24 hours
Method: To test if this particular batch of peptide might be neurotoxic, neurons were treated with 10 μM of peptides for 24 hours.

[1] = system: Aβ1-42-mediated neuronal cell death; assay: Inhibition of Aβ1-42-mediated neuronal cell death in Aβ1-42-microinjected neurons, TUNEL; assay type: cell-based, human; details: 1 hour pre-incubation, 24 hours; for inhibition of the Aβ1-42-induced cell death / prevention of Aβ1-42-induced neuronal cell death (in words): 5 μM inhibitor; for block of Aβ1-42-induced neuronal death (in words): 5 μg/ml cycloheximide or 5 μM actinomycin D
Method: cDNA Clones. Human Bcl-2 cDNA, Bax α cDNA, and APP695 cDNA were cloned into pCep4β (Invitrogen Canada, Burlington, ON, Canada). The p53 wild type and p53R273H dominant negative cDNA may be cloned in the pCMV-NEO vector. These cDNAs were purified through GlassMAXTM (Gibco-BRL, Rockville, Mass.) and diluted at 30 ng/μl in PBS before injection.
Neutralizing Bax antibodies. Monoclonal anti-Bax 6A7 (amino acids 12-24: Pharmingen, San Diego, Calif.) and 2D2 (amino acids 3-16: Trevigen, Gaithersburg, Md.), polyclonal anti-Bax N-20 (Santa Cruz Biotechnology, Santa Cruz, Calif.), monoclonal anti-APP 22C11 (Roche Molecular Biochemicals, Laval, PQ, Canada), mouse IgG or rabbit sera were diluted at 50 μg/ml (for 6A7, 2D2, mouse IgG and 22C11) or 25 μg/ml (for polyclonal anti-Bax and rabbit sera) in PBS before use. A toxicity curve was done to determine this concentration as the highest non-toxic concentration that can be injected in neurons.
as §1
Measurement of neuronal apoptosis. Cells were fixed in freshly prepared 4% paraformaldehyde/4% sucrose for 20 minutes at room temperature and permeabilized in 0.1% Triton X-100, 0.1% sodium citrate on ice for 2 minutes. Terminal deoxynucleotidyl transferase-mediated dUTP nick end labeling (TUNEL) was performed using the In Situ Cell Death Detection Kit I as described by the manufacturer (Roche Molecular Biochemicals). The percentage of cell death was determined as the ratio of the number of DTR-TLUNEL-double-positive cells over the total number of DIR-positive cells.
Treatment with caspase inhibitors, cycloheximide, actinomycin D. Caspase pan inhibitor, Z-Valine-Alanine-Aspartic acid-fluoromethylketone (Z-VAD-fmk) (Biomol, Plymounth Meeting, PA); caspase-6 inhibitor, Z-Valine-Glutamic acid-Isoleucine-Aspartic acid-fmk (Z-VEID-fnk); caspase-3 inhibitor, Z-Aspartic acid-Glutamic acid-Valine-Aspartic acid-fmk (Z-DEVD-fmk); and caspase-8 inhibitor, Z-Isoleucine-Glutamic acid-Threomine-Aspartic acid-fmk (Z-IETD-fmk) (Sigma, Oakville, ON, Canada) were dissolved in 100% dimethylsulphoxide (DMSO, Sigma) at 5 mM and were diluted at 5 μM into culture medium immediately before use. The medium was changed every 48 hours.
Stock solutions of 5 mg/ml cycloheximide and 200 IM actinomycin D were made in sterile distilled water and diluted to 5 μg/ml for cycloheximide and 5 μM for actinomycin D in the culture medium immediately before use.
Dextran Texas Red (DTR) was co-injected with Aβ1-42 to identi the injected cells from the non-injected cells. The experiment was done on 200 microinjected neurons per preparation of neurons and on three independent neuron preparations.

Aβ1-40: 40 amino acid amyloid β peptide (SEQ ID NO: 1)
effect on cell viability (primary human neurons; 10 nM aged peptide, between 24 and 96 hours): do not affect cell viability
cell death of microinjected neurons (primary human neurons; 10 nM aged peptide, sixteen days after injection): 50%
intracellular toxicity to human neurons (in words) (primary human neurons): not observed to be toxic; also recorded: significant apoptosis only 16 days after microinjection
toxicity of extracellular peptide (in words) (human neurons): do not undergo cell death; also recorded: Neither extracellular Aβ1-40, Aβ1-42, or Aβ40-1 are toxic

CC(C)[C@H](NC(=O)[C@H](CCC(=O)O)NC(=O)[C@H](CC(=O)O)NC(=O)OCc1ccccc1)C(=O)N[C@@H](CC(=O)O)C(=O)CF [Z-DEVD-fmk, Z-Aspartic acid-Glutamic acid-Valine-Aspartic acid-fmk]
inhibition of the Aβ1-42-induced cell death [1]: 30%

non-fibrillized Aβ1-42: disaggregated Aβ1-42 diluted and immediately frozen
intracellular toxicity to human neurons (in words) (primary human neurons): as neurotoxic as fibrillized

COC(=O)C[C@H](NC(=O)[C@H](C)NC(=O)[C@@H](NC(=O)OCc1ccccc1)C(C)C)C(=O)CF [Z-VAD-fmk, Z-Valine-Alanine-Aspartic acid-fluoromethylketone] (Cbz-Val-Ala-Asp(OMe)-CH2F)
prevention of Aβ1-42-induced neuronal cell death (in words) [1]: completely prevents

CC[C@H](C)[C@H](NC(=O)OCc1ccccc1)C(=O)N[C@@H](CCC(=O)O)C(=O)N[C@H](C(=O)N[C@@H](CC(=O)O)C(=O)CF)[C@@H](C)O [Z-IETD-fmk, Z-Isoleucine-Glutamic acid-Threomine-Aspartic acid-fmk] (Cbz-IETD-CH2F)
prevention of Aβ1-42-induced neuronal cell death (in words) [1]: completely prevents

non-fibrillized Aβ1-40: disaggregated Aβ1-40 diluted and immediately frozen
neuronal cell death (in words) (primary human neurons): neither fibrillized nor non-fibrillized Aβ1-40 cause significant cell death

C[C@@H]1C[C@@H]([C@H](O)CC2CC(=O)NC(=O)C2)C(=O)[C@@H](C)C1 [cycloheximide]
block of Aβ1-42-induced neuronal death (in words) [1]: efficiently block

Cc1c2oc3c(C)ccc(C(=O)N[C@@H]4C(=O)N[C@H](C(C)C)C(=O)N5CCC[C@H]5C(=O)N(C)CC(=O)N(C)[C@@H](C(C)C)C(=O)O[C@@H]4C)c3nc-2c(C(=O)N[C@@H]2C(=O)N[C@H](C(C)C)C(=O)N3CCC[C@H]3C(=O)N(C)CC(=O)N(C)[C@@H](C(C)C)C(=O)O[C@@H]2C)c(N)c1=O [actinomycin D] (I: T[dV]P[Sar][NMeV] / II: T[dV]P[Sar][NMeV]; ester I:1-I:C, II:1-II:C; linker I:N-II:N via Actinocin(9to1))
block of Aβ1-42-induced neuronal death (in words) [1]: efficiently block

fibrillized Aβ1-40: Aβ1-40 incubated at 37° C. with mixing
neuronal cell death (in words) (primary human neurons): neither fibrillized nor non-fibrillized Aβ1-40 cause significant cell death

Z-Valine-Glutamic acid-Isoleucine-Aspartic acid-fmk [Z-VEID-fmk]
prevention of Aβ1-42-induced neuronal cell death (in words) [1]: completely prevents

COC(=O)C[C@H](NC(=O)[C@H](C)NC(=O)[C@@H](NC(=O)[C@H](Cc1ccc(O)cc1)NC(=O)OCc1ccccc1)C(C)C)C(=O)CF [Z-YVAD-fmk]
inhibition of the Aβ1-42-induced cell death [1]: 30%
